Results as given in ChEMBL document CHEMBL2176918, “Design and optimization of pyrazinecarboxamide-based inhibitors of diacylglycerol acyltransferase 1 (DGAT1) leading to a clinical candidate dimethylpyrazinecarboxamide phenylcyclohexylacetic acid (AZD7687)” (J Med Chem, 2012).

Tests used:
[1] = Volume of distribution in Han-Wistar rat at 5.4 uM/kg, po or 2.7 uM/kg, iv; assay type: ADME, organism-based; settings: in vivo
[2] = Intrinsic clearance in human hepatocytes assessed as parent compound disappearance at 1 uM per 10^6 cells; assay type: ADME, cell-based, Hepatocyte; settings: read-out: CLH
[3] = molecular target: T1, Diacylglycerol O-acyltransferase 1 (Homo sapiens, UniProt O75907)
T1 sequence (O75907 whole entry): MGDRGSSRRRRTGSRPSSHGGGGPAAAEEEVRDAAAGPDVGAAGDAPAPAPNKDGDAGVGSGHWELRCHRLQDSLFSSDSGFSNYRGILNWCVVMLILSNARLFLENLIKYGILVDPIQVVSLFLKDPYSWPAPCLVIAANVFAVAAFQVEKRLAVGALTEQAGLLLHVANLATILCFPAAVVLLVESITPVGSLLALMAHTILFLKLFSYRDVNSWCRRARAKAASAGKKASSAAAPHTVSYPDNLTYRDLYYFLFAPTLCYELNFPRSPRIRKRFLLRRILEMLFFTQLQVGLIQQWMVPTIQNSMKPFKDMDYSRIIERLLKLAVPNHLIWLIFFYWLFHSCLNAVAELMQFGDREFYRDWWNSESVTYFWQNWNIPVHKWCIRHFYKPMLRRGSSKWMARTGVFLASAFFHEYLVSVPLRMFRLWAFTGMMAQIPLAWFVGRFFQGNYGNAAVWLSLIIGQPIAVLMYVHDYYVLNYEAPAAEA
Description: Inhibition of human recombinant DGAT1 expressed in Sf9 cells by liquid scintillography

[4] = molecular target: Voltage-gated inwardly rectifying potassium channel KCNH2 (Homo sapiens, UniProt Q12809); assay: Inhibition of human ERG
Sequence of Voltage-gated inwardly rectifying potassium channel KCNH2 (Q12809 whole entry): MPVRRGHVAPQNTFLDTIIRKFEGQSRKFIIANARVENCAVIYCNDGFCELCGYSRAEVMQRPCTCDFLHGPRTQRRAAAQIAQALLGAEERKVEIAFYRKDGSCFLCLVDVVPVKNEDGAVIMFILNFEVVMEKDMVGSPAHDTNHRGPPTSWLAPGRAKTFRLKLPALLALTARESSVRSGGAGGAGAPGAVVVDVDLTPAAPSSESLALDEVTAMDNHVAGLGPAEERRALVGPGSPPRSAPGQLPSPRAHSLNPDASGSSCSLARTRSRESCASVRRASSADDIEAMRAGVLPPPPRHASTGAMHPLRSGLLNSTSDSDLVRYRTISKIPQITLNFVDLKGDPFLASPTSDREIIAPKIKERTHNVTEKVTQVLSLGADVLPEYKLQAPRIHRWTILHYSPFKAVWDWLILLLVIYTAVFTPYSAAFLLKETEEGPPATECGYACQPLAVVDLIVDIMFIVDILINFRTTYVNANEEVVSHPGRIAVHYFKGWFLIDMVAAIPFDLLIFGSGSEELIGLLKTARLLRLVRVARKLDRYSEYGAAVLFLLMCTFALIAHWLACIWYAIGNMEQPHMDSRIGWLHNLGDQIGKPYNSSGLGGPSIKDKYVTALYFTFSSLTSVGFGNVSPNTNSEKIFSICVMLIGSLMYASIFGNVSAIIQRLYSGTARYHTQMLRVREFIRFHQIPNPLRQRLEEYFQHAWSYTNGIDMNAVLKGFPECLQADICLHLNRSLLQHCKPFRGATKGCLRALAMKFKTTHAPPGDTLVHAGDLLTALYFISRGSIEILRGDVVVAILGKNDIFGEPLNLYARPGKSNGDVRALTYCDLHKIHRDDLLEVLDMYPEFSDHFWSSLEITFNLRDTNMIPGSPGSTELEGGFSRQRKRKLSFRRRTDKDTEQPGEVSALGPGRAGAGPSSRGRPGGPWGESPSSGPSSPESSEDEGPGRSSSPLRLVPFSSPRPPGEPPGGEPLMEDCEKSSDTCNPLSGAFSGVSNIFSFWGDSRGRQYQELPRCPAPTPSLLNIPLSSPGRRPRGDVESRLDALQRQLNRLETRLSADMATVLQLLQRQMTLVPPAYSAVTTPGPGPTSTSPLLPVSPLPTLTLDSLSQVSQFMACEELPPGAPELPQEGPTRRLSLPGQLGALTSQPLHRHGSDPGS

Cytochrome P450 2C9 = Cytochrome P450 2C9 (Homo sapiens, UniProt P11712); assay: Inhibition of CYP2C9; assay type: ADME
Sequence of Cytochrome P450 2C9 (P11712 whole entry): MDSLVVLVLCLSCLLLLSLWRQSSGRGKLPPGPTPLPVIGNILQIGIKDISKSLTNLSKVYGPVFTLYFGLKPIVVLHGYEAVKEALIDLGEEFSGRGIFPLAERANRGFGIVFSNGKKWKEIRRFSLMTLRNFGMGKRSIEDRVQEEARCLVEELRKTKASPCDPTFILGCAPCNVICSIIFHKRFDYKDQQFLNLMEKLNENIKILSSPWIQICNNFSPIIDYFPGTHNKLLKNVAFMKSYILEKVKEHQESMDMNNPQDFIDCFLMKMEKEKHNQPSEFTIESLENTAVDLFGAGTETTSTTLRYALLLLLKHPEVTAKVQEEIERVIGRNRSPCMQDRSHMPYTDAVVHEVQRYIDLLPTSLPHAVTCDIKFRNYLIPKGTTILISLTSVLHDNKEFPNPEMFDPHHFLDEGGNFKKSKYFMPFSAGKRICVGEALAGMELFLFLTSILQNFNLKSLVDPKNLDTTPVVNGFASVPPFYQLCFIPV

[5] = Clearance in Beagle dog at 27.2 uM/kg, po or 1.4 uM/kg, iv; assay type: ADME, organism-based, Canis lupus familiaris; settings: in vivo
[6] = Fraction unbound in rat plasma; assay type: ADME, cell-free
[7] = Photostability stability by Hanau sun test; assay type: physicochemical
[8] = molecular target: T2, Diacylglycerol O-acyltransferase 1 (Rattus norvegicus, UniProt Q9ERM3); assay: Inhibition of DGAT1 in rat liver microsomes; set-up: species or system Microsome
T2 sequence (Q9ERM3 whole entry): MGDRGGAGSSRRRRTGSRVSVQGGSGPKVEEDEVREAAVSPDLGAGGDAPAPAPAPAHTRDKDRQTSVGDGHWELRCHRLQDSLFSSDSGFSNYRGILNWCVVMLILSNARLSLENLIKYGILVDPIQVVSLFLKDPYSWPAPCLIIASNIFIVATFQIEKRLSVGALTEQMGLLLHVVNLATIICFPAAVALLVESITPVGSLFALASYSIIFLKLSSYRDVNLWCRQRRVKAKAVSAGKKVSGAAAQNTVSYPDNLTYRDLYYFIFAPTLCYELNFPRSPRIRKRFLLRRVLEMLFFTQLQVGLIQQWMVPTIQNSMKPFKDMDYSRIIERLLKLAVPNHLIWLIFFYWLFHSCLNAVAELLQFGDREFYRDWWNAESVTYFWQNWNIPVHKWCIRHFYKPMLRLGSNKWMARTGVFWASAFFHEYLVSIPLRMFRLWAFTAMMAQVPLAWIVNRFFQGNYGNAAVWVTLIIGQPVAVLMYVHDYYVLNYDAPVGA

[9] = Volume of distribution in C57BL/6 mouse at 8.16 uM/kg, po or 5.4 uM/kg, iv; assay type: ADME, organism-based; settings: in vivo
[10] = Fraction unbound in mouse plasma; assay type: ADME, cell-free
[11] = Chemical stability in pH 1 to 10 buffer at 25 degC; assay type: physicochemical
[12] = molecular target: T1, Diacylglycerol O-acyltransferase 1; assay: Inhibition of DGAT1 in human liver microsomes; set-up: species or system Microsome
[13] = molecular target: T3, Diacylglycerol O-acyltransferase 2 (Homo sapiens, UniProt Q96PD7); assay: Inhibition of human DGAT2 by liquid scintillography
T3 sequence (Q96PD7 whole entry): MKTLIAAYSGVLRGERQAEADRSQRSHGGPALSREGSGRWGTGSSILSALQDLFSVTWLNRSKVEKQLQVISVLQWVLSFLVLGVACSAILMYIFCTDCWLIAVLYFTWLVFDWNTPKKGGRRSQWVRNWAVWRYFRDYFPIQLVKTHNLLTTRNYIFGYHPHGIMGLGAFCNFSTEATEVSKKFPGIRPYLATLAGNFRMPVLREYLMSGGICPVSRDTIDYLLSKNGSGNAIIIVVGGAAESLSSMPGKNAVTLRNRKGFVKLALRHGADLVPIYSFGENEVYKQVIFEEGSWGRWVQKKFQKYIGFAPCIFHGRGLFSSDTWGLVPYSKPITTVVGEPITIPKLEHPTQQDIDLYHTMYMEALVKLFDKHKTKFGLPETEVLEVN

[14] = Fraction unbound in dog plasma; assay type: ADME, cell-free, Canis lupus familiaris
[15] = molecular target: T4, Fatty-acid amide hydrolase 1 (Homo sapiens, UniProt O00519); assay: Inhibition of FAAH
T4 sequence (O00519 whole entry): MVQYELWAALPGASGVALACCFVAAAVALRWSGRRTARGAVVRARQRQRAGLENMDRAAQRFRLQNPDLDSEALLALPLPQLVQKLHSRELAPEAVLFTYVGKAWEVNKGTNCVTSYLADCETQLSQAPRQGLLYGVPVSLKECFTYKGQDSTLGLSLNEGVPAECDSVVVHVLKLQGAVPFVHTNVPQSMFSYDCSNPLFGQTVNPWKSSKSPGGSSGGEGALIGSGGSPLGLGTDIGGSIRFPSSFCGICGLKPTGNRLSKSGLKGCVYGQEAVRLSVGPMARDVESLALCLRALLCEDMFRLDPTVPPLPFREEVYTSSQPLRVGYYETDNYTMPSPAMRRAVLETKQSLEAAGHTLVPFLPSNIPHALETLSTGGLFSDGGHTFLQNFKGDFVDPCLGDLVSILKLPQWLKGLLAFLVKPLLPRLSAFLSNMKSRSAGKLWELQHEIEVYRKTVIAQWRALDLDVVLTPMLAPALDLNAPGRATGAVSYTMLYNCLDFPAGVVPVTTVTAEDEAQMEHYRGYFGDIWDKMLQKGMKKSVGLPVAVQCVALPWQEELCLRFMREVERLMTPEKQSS

Vd [1]: 0.35 L/kg
hepatocyte CLint at 1 µM [2]: < 2 µL/min/1e6 cells
IC50 [3]: 80 nM
IC50 (Cytochrome P450 2C9): > 30000 nM
clearance [5]: 1.2 mL/min/kg
fraction unbound [6]: 0.03
half-life [7]: 7.6 h
IC50 [8]: 150 nM
Vd [9]: 0.9 L/kg
fraction unbound [10]: 0.1
half-life [11]: > 100 days
IC50 [12]: 70 nM
IC50 [13]: > 300000 nM
fraction unbound [14]: 0.06
IC50 [15]: 3700 nM
SMILES: Cc1nc(C)c(-c2ccc(C3CCC(CC(=O)O)CC3)cc2)nc1C(N)=O (stereo unspecified) [AZD-7687]
IC50 [4]: > 32000 nM
